In patent publication US10793514B2, “Glutamine transport inhibitors and methods for treating cancer” (Vanderbilt University, priority 2016, dated 2020):

How the values were obtained:
human CRC cell lines = assay: Follow-up viability screening (MultiTox Glo, sulforhodamine B); format: cell-based
Description: Viability was evaluated using a commercially available chemiluminescent reagents (CellTiter-Glo, Promega Corp. G7572; MultiTox Glo, Promega Corp. G9270) in 96-well plate format according to the manufacturers protocol. […] Subsequently, CellTiter-Glo reagent was added and the plates were read using a plate reader (BioTek Synergy 4) with standard settings. Each set of conditions was replicated at least three times, technically and biologically. Error is reported as standard deviation (SD). The sulforhodamine B assay was run analogously to the above assays as previously described^19.

[1] = system: HT29 (BRAF V600E) cell-line xenografts; assay: HT29 xenograft chronic exposure study; format: in vivo, mouse; details: 75 mg/kg per day, 21 days
Description: (§1) Tissues were sectioned (5 μm thickness) and stained for pS6 (Cell Signaling, #4858) and caspase 3 (Cell Signaling #9661). Tissue slides were imaged at 20× magnification.
(§2) For in vivo studies, cell-line xenograft tumors were propagated in 6-week old, female athymic nude mice from immortalized cell lines. For HCC-1806 (10×10^6 cells), HCT-116 (5×10^6), and HT29 (10×10^6) cells were injected. Palpable tumors were typically visible within 2-3 weeks. For imaging studies (HCC-1806), tumors were propagated to approximately 500 mm^3. For treatment studies (HCT-116, HT29) tumors were propagated to approximately 200 mm^3 prior to therapy and were randomly assigned into treated and untreated cohorts. For generating the PDX, primary tumor tissue was obtained form a patient at Vanderbilt University Medical Center under an IRB approved protocol. The tumor tissue was genotyped within the VANTAGE core facility. Xenograft was generated as previously described 41. Briefly, tumor tissues were sectioned into approximately 125 cubic millimeter pieces then implanted subcutaneously without further manipulation. […] Tumor volumes were measured manually using calipers every third day and quantified using the formula V=W·L·(H/2).

[2] = system: pERK in HCC1806 and HT29 cells; assay: AlphaScreen SureFire pERK assay; format: cell-based, human; details: 48 h
Description: Detection of activated ERK in cell lysates was enabled by the AlphaScreen SureFire ERK assay (Perkin Elmer) according to the manufacturers protocol. Cells were plated in 96-well plates for 24 hours prior to the assay.

HCC1806 and HT29 cells = assay: Autophagic flux (CYTO-ID); format: cell-based, human
Description: Autophagic flux was measure using the CYTO-ID autophagy detection kit (Enzo Life Sciences ENZ-51031). HCC1806 and HT29 cells were seeded in 96 well plates the day before the experiment. […] Following treatment, cells were gently washed with assay buffer followed by addition of the dual color detection solution and incubation at 37° C. for 30 min. The plate was analyzed on a fluorescence microplane reader (BioTek Synergy 4).

[3] = system: HCT-116 (KRAS G13D) cell-line xenografts; assay: HCT-116 xenograft chronic exposure study; format: in vivo, mouse; details: 75 mg/kg per day, 21 days
Description: as §1, §2

HCC1806 cells [4] = assay: Fluorescence redox ratio imaging; format: cell-based, human; details: 10 μM, 48 h
Description: HCC1806 cells were plated on 35-mm glass-bottom petri dishes for imaging (MatTek Corp). Fluorescence intensity and lifetime images were acquired using a custom-built multiphoton fluorescence lifetime system (Bruker), with a 40× oil-immersion objective (1.3 NA) and an inverted microscope (TiE, Nikon). A titanium:sapphire laser (Chameleon Ultra II, Coherent) was tuned to 750 nm for two-photon excitation of NAD(P)H and tuned to 890 nm for two-photon excitation of FAD. A 440/80 nm bandpass filter was used to collect NAD(P)H fluorescence emission, and a 550/100 nm was used to collect FAD emission. […] A GaAsP PMT (H7422P-40, Hamamatsu) detected emitted photons. […] Time-correlated single photon counting electronics (SPC-150, Becker and Hickl) were used to acquire fluorescence decay curves. […] Fluorescence lifetime validation was performed by imaging a fluorescent bead (Polysciences Inc) and confirming that the measured lifetime (2.1 ns) agreed with previously published values^22. […]
An automated cell segmentation routine was written using CellProfiler to identify individual cell cytoplasms and extract average fluorescence intensity and fluorescence lifetime values for each cell in the field of view. Intensity values for each pixel were calculated by integrating the decay curve for each pixel. […]

HCC1806 cells [5] = assay: Glutathione and reactive oxygen species in HCC1806 cells; format: cell-based, human
Description: Glutathione levels were measured using a commercially available kit (Cayman Chemical 703002) according to the manufacturers protocol. Concurrently ROS was measured in cells using CM-H2DCFDA (Life Technologies C6827) coupled with flow cytometry in accordance with the manufacturers protocol. The assay was replicated replicated at least three times, technically and biologically. Significance was calculated using a t-test in Graphpad Prism. Error is reported as standard deviation (SD).

Cc1cccc(COc2ccccc2CN(CCC(N)C(=O)O)Cc2ccccc2OCc2cccc(C)c2)c1 (centres unmarked) [Compound V-9302]
cellular viability and cell death (human CRC cell lines; 25 μM, 48 h, three independent assays lacking ATP-dependency): reduced cellular viability and increased cell death | EC50 (human CRC cell lines; four human CRC cell lines, 48 hrs, MultiTox Glo, read-out: EC50, cellular viability): 9 to 15 µM | cleaved caspase 3 in tumor tissue ([1]; IHC): elevated levels of cleaved caspase 3 | pS6 in tumor tissue ([1]; IHC): significantly decreased pS6 | tumor growth ([1]; vs vehicle): prevented tumor growth | pERK (independent biochemical assay) [2]: statistically significant, concentration-dependent decrease in pERK | number of autophagic vesicles (HCC1806 and HT29 cells; HT29 cells, combined with chloroquine (10 μM)): further increased the number of autophagic vesicles | autophagic flux (HCC1806 and HT29 cells; single agent): elevated with V-9302 exposure in a concentration-dependent manner | cleaved caspase 3 in tumor tissue ([3]; IHC): elevated levels of cleaved caspase 3 | pS6 in tumor tissue ([3]; IHC): significantly decreased pS6 | tumor growth ([3]; vs vehicle): prevented tumor growth | fluorescent lifetimes of NAD(P)H and FAD (HCC1806 cells [4]): decreased the fluorescent lifetimes of both NAD(P)H and FAD | intracellular reactive oxygen species (ROS) (HCC1806 cells [5]): corresponding increase in intracellular reactive oxygen species (ROS) | oxidized (GSSG) and reduced (GSH) glutathione (HCC1806 cells [5]): increased levels of oxidized glutathione (GSSG) at the expense of reduced glutathione (GSH)
